DBAASP
Values after ≈ are worked out from the molar mass of the structure shown. Blank lines part the entries; values can stand above or below the compound they belong to.

Columns and labels:
Assay in all cases: ≥ marks a high value that may be exact or a test limit, other limits are often not marked, values filed in µg/mL are converted to µM
[1] = tested on: Pseudomonas aeruginosa ATCC 9027
[2] = tested on: Staphylococcus aureus ATCC 6538
[3] = tested on: Escherichia coli ATCC 25922
[4] = tested on: Candida albicans ATCC 10231
[5] = tested on: Staphylococcus aureus ATCC 25923
[6] = tested on: Bacillus subtilis ATCC 6633
Staphylococcus aureus = tested on: Staphylococcus aureus
Acinetobacter baumannii = tested on: Acinetobacter baumannii
[7] = tested on: Candida albicans ATCC 90028
[8] = tested on: Klebsiella pneumoniae ATCC 700603
Bacillus subtilis = tested on: Bacillus subtilis
Candida albicans = tested on: Candida albicans
Escherichia coli = tested on: Escherichia coli
[9] = tested on: Staphylococcus epidermidis
[10] = tested on: Candida albicans ATCC 2002

MIC [3]: > 65.8 µM
MIC [4]: > 65.8 µM
MIC [5]: > 65.8 µM
MIC [6]: ≥ 65.8 µM
SMILES: CC(C)C[C@H](NC(=O)[C@@H]1CCCN1C(=O)[C@H](CCCCN)NC(=O)[C@@H]1CCCN1C(=O)[C@H](Cc1ccc(O)cc1)NC(=O)[C@H](CCCCN)NC(=O)[C@H](Cc1c[nH]c2ccccc12)NC(=O)[C@H](CCCN=C(N)N)NC(=O)[C@@H](N)Cc1ccccc1)C(=O)N[C@@H](CCCCN)C(=O)N[C@@H](CCCN=C(N)N)C(=O)O [FRWKYPKPLKR]

MIC (Staphylococcus aureus): 5.66 µM (≈ 16.1 µg/mL)
MIC [3]: 5 µM (≈ 14.2 µg/mL)
MIC (Acinetobacter baumannii): 5.66 µM (≈ 16.1 µg/mL)
MIC [7]: 25 µM (≈ 71.1 µg/mL)
MIC [5]: 5 µM (≈ 14.2 µg/mL)
SMILES: CC[C@H](C)[C@H](NC(=O)[C@H](CCCCN)NC(=O)[C@H](Cc1ccccc1)NC(=O)[C@H](C)NC(=O)[C@H](CCCCN)NC(=O)CNC(=O)[C@H](CC(C)C)NC(=O)[C@H](CC(C)C)NC(=O)[C@H](CO)NC(=O)CNC(=O)[C@H](CC(C)C)NC(=O)CN)C(=O)NCC(=O)N[C@@H](CC(C)C)C(=O)N[C@@H](CCCCN)C(=O)N[C@H](C(=O)N[C@H](C(=O)NCC(=O)N[C@@H](CCCCN)C(=O)N[C@@H](CCSC)C(=O)N[C@@H](CCSC)C(=O)NCC(=O)NCC(=O)N[C@@H](C)C(=O)N1CCC[C@H]1C(=O)N[C@@H](CCCNC(=N)N)C(=O)N[C@@H](CCC(=O)O)C(=O)N[C@@H](CCC(N)=O)C(=O)O)C(C)C)[C@@H](C)O [GLGSLLGKAFKIGLKTVGKMMGGAPREQ]

MIC [2]: 4.1 µM (≈ 11.2 µg/mL)
SMILES: CC(C)C[C@H](NC(=O)CNC(=O)[C@@H](NC(=O)[C@@H]1CCCN1C(=O)[C@H](CC(C)C)NC(=O)CNC(=O)[C@H](CC(N)=O)NC(=O)[C@H](CC(N)=O)NC(=O)[C@H](Cc1ccccc1)NC(=O)[C@@H](NC(=O)[C@H](CCCN=C(N)N)NC(=O)[C@H](CS)NC(=O)[C@H](CCCN=C(N)N)NC(=O)[C@H](Cc1cnc[nH]1)NC(=O)[C@H](CCCCN)NC(=O)[C@H](CCCCN)NC(=O)[C@H](CCCN=C(N)N)NC(=O)[C@@H](N)CCCCN)C(C)C)[C@@H](C)O)C(=O)N[C@@H](Cc1ccc(O)cc1)C(=O)N[C@@H](CCCN=C(N)N)C(=O)N[C@@H](Cc1c[nH]c2ccccc12)C(=O)N[C@@H](CS)C(N)=O [KRKKHRCRVFNNGLPTGLYRWC]

MIC [10]: ≥ 69 µM
SMILES: CC[C@H](C)[C@H](NC(=O)[C@@H](NC(=O)[C@@H](NC(=O)[C@@H]1CCCN1C(=O)[C@H](Cc1c[nH]c2ccccc12)NC(=O)[C@H](Cc1ccccc1)NC(=O)[C@H](CCCN=C(N)N)NC(=O)[C@H](CCCCN)NC(=O)[C@@H](NC(=O)[C@@H](N)CCCN=C(N)N)[C@@H](C)CC)C(C)C)C(C)C)C(=O)N[C@@H](CCCN=C(N)N)C(=O)N[C@H](C(=O)N[C@H](C(=O)N[C@H](C(=O)N[C@@H](C)C(=O)NCC(=O)N[C@@H](Cc1ccc(O)cc1)C(=O)N[C@@H](CC(N)=O)C(=O)O)C(C)C)C(C)C)[C@@H](C)O [RIKRFWPVVIRTVVAGYN]

The remaining lines, values behind:

SMILES: CC(C)C[C@H](NC(=O)[C@H](C)NC(=O)[C@H](CC(C)C)NC(=O)[C@H](CCCCN)NC(=O)[C@H](C)NC(=O)[C@H](CC(C)C)NC(=O)[C@H](CCCCN)NC(=O)[C@H](CCCCN)NC(=O)[C@H](CC(C)C)NC(=O)[C@H](CCCCN)NC(=O)[C@H](CCCCN)NC(=O)[C@H](C)NC(=O)[C@H](CC(C)C)NC(=O)[C@H](CCCCN)NC(=O)[C@H](CCCCN)NC(=O)[C@H](C)NC(=O)[C@@H](N)Cc1ccccc1)C(=O)N[C@@H](C)C(=O)N[C@@H](CCCCN)C(N)=O [FAKKLAKKLKKLAKLALAK]
MIC [1]: 4.74 µM (≈ 10 µg/mL)
MIC [2]: 4.74 µM (≈ 10 µg/mL)

SMILES: CC(C)C[C@H](NC(=O)[C@H](C)NC(=O)[C@H](CC(C)C)NC(=O)[C@H](C)NC(=O)[C@H](CCCCN)NC(=O)[C@H](CCCCN)NC(=O)[C@H](C)NC(=O)[C@H](CC(C)C)NC(=O)[C@H](CCCCN)NC(=O)[C@H](C)NC(=O)[C@H](CC(C)C)NC(=O)[C@H](CCCCN)NC(=O)[C@H](CCCCN)NC(=O)[C@H](C)NC(=O)[C@@H](N)Cc1ccccc1)C(N)=O [FAKKLAKLAKKALAL]
MIC [1]: 15.5 µM (≈ 25 µg/mL)
MIC [2]: 62 µM (≈ 99.9 µg/mL)

SMILES: CC[C@H](C)[C@H](NC(=O)[C@H](CCCCN)NC(=O)[C@H](CCCCN)NC(=O)[C@H](C)NC(=O)[C@H](CC(C)C)NC(=O)[C@H](CCCCN)NC(=O)[C@H](C)NC(=O)[C@H](CC(C)C)NC(=O)[C@H](CC(C)C)NC(=O)[C@H](CCCCN)NC(=O)[C@H](C)NC(=O)[C@@H](N)Cc1ccccc1)C(=O)N[C@@H](CC(C)C)C(N)=O [FAKLLAKLAKKIL]
MIC [1]: 68.6 µM (≈ 99.9 µg/mL)
MIC [2]: 6.86 µM (≈ 9.99 µg/mL)

SMILES: CC(C)C[C@H](NC(=O)[C@H](C)NC(=O)[C@H](CCCCN)NC(=O)[C@H](CCCCN)NC(=O)[C@H](C)NC(=O)[C@H](CC(C)C)NC(=O)[C@H](CCCCN)NC(=O)[C@H](CCCCN)NC(=O)[C@H](CC(C)C)NC(=O)[C@H](CCCCN)NC(=O)[C@H](CCCCN)NC(=O)[C@H](C)NC(=O)[C@H](CC(C)C)NC(=O)[C@H](CCCCN)NC(=O)[C@H](CCCCN)NC(=O)[C@H](CC(C)C)NC(=O)[C@H](C)NC(=O)[C@H](CCCCN)NC(=O)[C@H](CC(C)C)NC(=O)[C@H](C)NC(=O)[C@H](CC(C)C)NC(=O)[C@H](C)NC(=O)[C@@H](N)Cc1ccccc1)C(N)=O [FALALKALKKLAKKLKKLAKKAL]
MIC [1]: 1.97 µM (≈ 5 µg/mL)
MIC [2]: 3.94 µM (≈ 10 µg/mL)

SMILES: CC[C@H](C)[C@H](NC(=O)[C@@H](NC(=O)[C@H](CCCCN)NC(=O)[C@H](CCCCN)NC(=O)[C@H](CC(C)C)NC(=O)CN)C(C)C)C(=O)N[C@@H](CCCCN)C(=O)N[C@@H](CC(C)C)C(=O)N[C@@H](CC(C)C)C(=O)N[C@@H](CCCN=C(N)N)C(=O)N1CCC[C@H]1C(=O)N[C@@H](CC(C)C)C(=O)N[C@@H](CC(C)C)C(=O)O [GLKKVIKLLRPLL]
MIC [1]: 16 µM (≈ 23.9 µg/mL)
MIC [3]: > 64 µM
MIC (Acinetobacter baumannii): ≥ 32 µM
MIC [8]: > 64 µM
MIC [5]: 32 µM (≈ 47.7 µg/mL)

SMILES: CC[C@H](C)[C@H](NC(=O)CNC(=O)[C@H](CO)NC(=O)[C@H](CC(C)C)NC(=O)[C@H](CC(C)C)NC(=O)CN)C(=O)N[C@@H](CC(C)C)C(=O)NCC(=O)N[C@@H](C)C(=O)NCC(=O)N[C@@H](CCCCN)C(=O)N[C@@H](Cc1cnc[nH]1)C(=O)N[C@H](C(=O)N[C@H](C(=O)N[C@H]1CSSC[C@@H](C(=O)O)NC(=O)[C@H](CC(C)C)NC(=O)CNC(=O)[C@H](CO)NC(=O)[C@H](CC(C)C)NC(=O)CNC1=O)[C@@H](C)CC)[C@@H](C)CC [GLLSGILGAGKHIICGLSGLC]
MIC (Bacillus subtilis): ≥ 50.4 µM
MIC (Staphylococcus aureus): > 50.4 µM
MIC (Candida albicans): 0.555 µM (≈ 1.1 µg/mL)
MIC (Escherichia coli): > 50.4 µM

SMILES: CC[C@H](C)[C@H](NC(=O)CNC(=O)[C@H](CO)NC(=O)[C@H](CC(C)C)NC(=O)[C@H](CC(C)C)NC(=O)CN)C(=O)N[C@@H](CC(C)C)C(=O)NCC(=O)N[C@@H](C)C(=O)NCC(=O)N[C@@H](CCCCN)C(=O)N[C@@H](Cc1cnc[nH]1)C(=O)N[C@H](C(=O)N[C@H](C(=O)N[C@@H](CS)C(=O)NCC(=O)N[C@@H](CC(C)C)C(=O)N[C@@H](CO)C(=O)NCC(=O)N1CCC[C@H]1C(=O)N[C@H]1CSSC[C@@H](C(=O)O)NC(=O)[C@H](CCCCN)NC(=O)[C@H](C)NC(=O)[C@H](CC(C)C)NC(=O)[C@H](Cc2cnc[nH]2)NC(=O)[C@H](Cc2ccc(O)cc2)NC(=O)[C@H](CCC(=O)O)NC(=O)[C@H](C(C)C)NC(=O)[C@H](CC(=O)O)NC(=O)[C@H](CO)NC(=O)[C@H](CO)NC(=O)[C@H](CCCCN)NC(=O)[C@H](CCCN=C(N)N)NC(=O)[C@H](CC(N)=O)NC(=O)[C@H](CC(C)C)NC(=O)[C@H](CO)NC(=O)[C@H](CCC(N)=O)NC1=O)C(C)C)[C@@H](C)CC [GLLSGILGAGKHIVCGLSGPCQSLNRKSSDVEYHLAKC]
MIC (Bacillus subtilis): 3.19 µM (≈ 12.5 µg/mL)
MIC (Staphylococcus aureus): 0.797 µM (≈ 3.12 µg/mL)
MIC (Candida albicans): 0.797 µM (≈ 3.12 µg/mL)
MIC (Escherichia coli): 1.6 µM (≈ 6.25 µg/mL)

SMILES: CC[C@H](C)[C@H](NC(=O)[C@@H](NC(=O)[C@@H]1CCCN1C(=O)[C@@H](NC(=O)[C@@H]1CCCN1C(=O)[C@H](CCCCN)NC(=O)[C@H](CCCCN)NC(=O)[C@H](CO)NC(=O)CN)C(C)C)[C@@H](C)CC)C(=O)N[C@@H](Cc1ccc(O)cc1)C(=O)N[C@H]1CSSC[C@@H](C(=O)N[C@@H](CCC(N)=O)C(=O)N[C@@H](CCCN=C(N)N)C(=O)N[C@@H](CCSC)C(=O)O)NC(=O)[C@H](CCCCN)NC(=O)[C@H](C)NC(=O)[C@H]([C@@H](C)O)NC(=O)[C@H](CCCN=C(N)N)NC(=O)[C@H](CCCN=C(N)N)NC(=O)[C@H](CC(N)=O)NC1=O [GSKKPVPIIYCNRRTAKCQRM]
MIC [3]: 6.53 µM (≈ 16 µg/mL)
MIC [8]: 6.53 µM (≈ 16 µg/mL)

SMILES: CC[C@H](C)[C@H](NC(=O)[C@H](CC(=O)O)NC(=O)[C@@H](NC(=O)[C@H](CCCCN)NC(=O)[C@H](Cc1ccccc1)NC(=O)[C@@H]1CCCN1)[C@@H](C)CC)C(=O)N[C@@H](Cc1cnc[nH]1)C(=O)N[C@@H](CC(C)C)C(=O)NCC(=O)NCC(=O)N[C@@H](Cc1ccc(O)cc1)C(N)=O [PFKIDIHLGGY]
MIC [9]: 23.8 µM (≈ 30 µg/mL)

SMILES: CC(C)[C@H](NC(=O)[C@H](CCCCN)NC(=O)[C@@H](NC(=O)[C@H](CCC(N)=O)NC(=O)[C@H](CCCCN)NC(=O)[C@H](Cc1c[nH]c2ccccc12)NC(=O)[C@@H](N)CCCN=C(N)N)C(C)C)C(=O)N[C@@H](CCCCN)C(=O)N[C@@H](CCCN=C(N)N)C(=O)O [RWKQVKVKR]
MIC [3]: 61.1 µM (≈ 75 µg/mL)
MIC [4]: 30.5 µM (≈ 37.5 µg/mL)
MIC [5]: > 81.5 µM
MIC [6]: ≥ 61.1 µM
